Laboratory results: ChEMBL document CHEMBL5614428, “Synthesis and antibacterial activities of heterocyclic ring-fused 20(S)-protopanaxadiol derivatives” (Bioorg Med Chem, 2024)
Values after ≈ are worked out from the molar mass of the structure shown. Active and inactive are the calls of the source. The calls are words filed in the database; no cut-off is given here.

Assays:
Staphylococcus aureus [1] = test: Antibacterial activity against methicillin-resistant Staphylococcus aureus USA300 assessed as inhibition of bacterial growth incubated for 18 hrs by two fold serial dilution assay; assay type: functional
Staphylococcus aureus [2] = test: Antibacterial activity against methicillin-resistant Staphylococcus aureus NRS-271 assessed as inhibition of bacterial growth incubated for 18 hrs by two fold serial dilution assay; assay type: functional
Staphylococcus aureus [3] = test: Antibacterial activity against methicillin-resistant Staphylococcus aureus USA300 assessed as fold increase in inhibition of bacterial growth incubated for 18 hrs by two fold serial dilution assay relative to (S)-4-((1S,3aR,3bR,5aR,13aR,13bR,15R,15aR)-15-hydroxy-3a,3b,6,6,13a-pentamethyl-2,3,3a,3b,4,5,5a,6,13,13a,13b,14,15,15a-tetradecahydro-1H-cyclopenta[5,6]naphtho[1,2-b]phenazin-1-yl)pentane-1,4-diol; assay type: functional
Staphylococcus aureus [4] = test: Antibacterial activity against methicillin-resistant Staphylococcus aureus XJ036 assessed as inhibition of bacterial growth incubated for 18 hrs by two fold serial dilution assay; assay type: functional
Staphylococcus aureus [5] = test: Antibacterial activity against methicillin-resistant Staphylococcus aureus NRS-100 assessed as inhibition of bacterial growth incubated for 18 hrs by two fold serial dilution assay; assay type: functional
Staphylococcus aureus [6] = test: Antibacterial activity against methicillin-resistant Staphylococcus aureus NRS-1 assessed as inhibition of bacterial growth incubated for 18 hrs by two fold serial dilution assay; assay type: functional
Staphylococcus aureus [7] = test: Antibacterial activity against methicillin-resistant Staphylococcus aureus NRS-108 assessed as inhibition of bacterial growth incubated for 18 hrs by two fold serial dilution assay; assay type: functional
Staphylococcus aureus [8] = test: Antibacterial activity against methicillin-resistant Staphylococcus aureus XJ017 assessed as inhibition of bacterial growth incubated for 18 hrs by two fold serial dilution assay; assay type: functional
Staphylococcus aureus [9] = test: Antibacterial activity against methicillin-resistant Staphylococcus aureus NRS-70 assessed as inhibition of bacterial growth incubated for 18 hrs by two fold serial dilution assay; assay type: functional
Staphylococcus aureus [10] = test: Antibacterial activity against Staphylococcus aureus Newman assessed as inhibition of bacterial growth incubated for 18 hrs by two fold serial dilution assay; assay type: functional
Staphylococcus aureus [11] = test: Antibacterial activity against Staphylococcus aureus Newman assessed as fold increase in inhibition of bacterial growth incubated for 18 hrs by two fold serial dilution assay relative to (S)-4-((1S,3aR,3bR,5aR,12aR,12bR,14R,14aR)-14-hydroxy-3a,3b,6,6,12a-pentamethyl-1,2,3,3a,3b,4,5,5a,6,7,12,12a,12b,13,14,14a-hexadecahydrocyclopenta[5,6]naphtho[2,1-b]carbazol-1-yl)pentane-1,4-diol; assay type: functional
Staphylococcus aureus [12] = test: Antibacterial activity against methicillin-resistant Staphylococcus aureus USA300 infected in zebrafish assessed as increase in survival rate at 50 mg/kg,ip administration measured for 5 days relative to Vancomycin; assay type: functional, organism-based; settings: time 5.0 day
[13] = Toxicity in Zebrafish at 25 to 75 mg/kg,ip administration measured upto 120 hrs; assay type: organism-based, Danio rerio; settings: in vivo, dose 25-75 mg/kg
Staphylococcus aureus [14] = test: Antibacterial activity against methicillin-resistant Staphylococcus aureus USA300 infected in zebrafish assessed as increase in survival rate at 25 mg/kg,ip administration measured for 5 days; assay type: functional, organism-based; settings: time 5.0 day

CC1(C)c2nc3ccccc3nc2C[C@]2(C)[C@H]3C[C@@H](O)[C@@H]4[C@@H]([C@@](C)(O)CCC(N)=O)CC[C@@]4(C)[C@]3(C)CC[C@@H]12
MIC (Staphylococcus aureus [1]): 4 µg/mL (≈ 7.49 µM)
MIC (Staphylococcus aureus [2]): 4 µg/mL (≈ 7.49 µM)
fold change (FC) (Staphylococcus aureus [3]): 2
MIC (Staphylococcus aureus [4]): 4 µg/mL (≈ 7.49 µM)
MIC (Staphylococcus aureus [5]): 4 µg/mL (≈ 7.49 µM)
MIC (Staphylococcus aureus [6]): 4 µg/mL (≈ 7.49 µM)
MIC (Staphylococcus aureus [7]): 4 µg/mL (≈ 7.49 µM)
MIC (Staphylococcus aureus [8]): 4 µg/mL (≈ 7.49 µM)
MIC (Staphylococcus aureus [9]): 4 µg/mL (≈ 7.49 µM)
MIC (Staphylococcus aureus [10]): 4 µg/mL (≈ 7.49 µM)

CC1(C)c2nc3ccccc3nc2C[C@]2(C)[C@H]3C[C@@H](O)[C@@H]4[C@@H]([C@@](C)(O)CCC(=O)Nc5nccs5)CC[C@@]4(C)[C@]3(C)CC[C@@H]12
fold change (FC) (Staphylococcus aureus [11]): 4
MIC (Staphylococcus aureus [1]): 1 µg/mL (≈ 1.62 µM)
Activity (Staphylococcus aureus [12]): Active
MIC (Staphylococcus aureus [2]): 1 µg/mL (≈ 1.62 µM)
MIC (Staphylococcus aureus [4]): 1 µg/mL (≈ 1.62 µM)
Activity [13]: Non-Toxic
MIC (Staphylococcus aureus [5]): 4 µg/mL (≈ 6.48 µM)
MIC (Staphylococcus aureus [6]): 1 µg/mL (≈ 1.62 µM)
Activity (Staphylococcus aureus [14]): Active
MIC (Staphylococcus aureus [7]): 2 µg/mL (≈ 3.24 µM)
MIC (Staphylococcus aureus [8]): 0.5 µg/mL (≈ 0.811 µM)
MIC (Staphylococcus aureus [9]): 1 µg/mL (≈ 1.62 µM)
MIC (Staphylococcus aureus [10]): 1 µg/mL (≈ 1.62 µM)
